Source: patent US9688709B2, “Phosphaplatins and their use for treatment of cancers” (OHIO UNIVERSITY, priority 2010, dated 2017)
“And” between values parts separate entries of the source, which are not always exact repeats. Equal values may be shown once.

What was measured:
[1] = tested on: A2780, epithelial human ovarian cancer; experiment: Clonogenic assay, A2780 cells; assay type: cell-based
Method: (§1) To determine the relative activities of the phosphaplatins of formulas (I)-(VI), each stereoisomer was tested through in vitro clonogenic assays using human ovarian cancer cells, human colon cancer cells, and human head-and-neck cancer cells. […] Cells were cultured on monolayer using RPMI 1640 supplemented with 10% fetal bovine serum, 2 mM glutamine, 0.25 units/mL insulin and penicillin/streptomycin (100 units/mL) in a 37° C. incubator continuously gassed with 5% CO2. Cells were subcultured using 0.0625% trypsin in HBSS to maintain cells in exponential cell growth.
Half-maximal inhibitory concentration (IC50) values were determined using a clonogenic assay or a CyQUANT® cell proliferation assay. In the clonogenic assay, for example, 500-700 A2780 cells from a single cell suspension were plated onto 60 mm petri plates 24 hours before treatment with the platinum compounds to permit cell attachment. On the day of treatment with the platinum compounds described in the above Synthesis Examples, the medium was decanted and was replaced with the appropriate concentration of phosphaplatin compounds (from 50 nM to 75 μM) at three different time points, […] Triplicate plates were set up for each platinum compound concentration. […] These plates were returned to the 37° C. incubator for 7 days for colony formation.
(§2) In TABLES 1-5, except where actual error values are given, each reported value is assumed to have an error not greater than ±15% of the reported value; and unless otherwise specified, the data were obtained from clonogenic assays.
(§3) In further tests, cells were treated with the platinum compounds continuously for 7 days. Colonies were fixed and stained using 2% crystal violet in 4% formaldehyde. Colonies containing more than 50 cells were scored. The number of scored colonies from the triplicate plates was averaged, and this number was divided by the number of cells plated to obtain a value for the fraction of cells forming colonies. These values for fraction of cells forming colonies then were corrected for plating efficiency by dividing the fraction by the number of cells forming colonies in plates that were not treated with platinum compounds. […] Similar data for OVCAR-10 are shown in FIG. 3, comparing (1R,2R)-pyrodach-2 (RD2), (1R,2R)-pyrodach-4 (RD4), trans-(±)-pyrodach-2 (T-D2), and trans-(±)-pyrodach-4 (T-D4).

[2] = tested on: A2780/C30, epithelial human ovarian cancer resistant to 30 μM cisplatin and 100 μM carboplatin; experiment: Clonogenic assay, A2780/C30 cells; assay type: cell-based; conditions: A2780/C30, 1 hour treatment
Method: as §1
Half-maximal inhibitory concentration (IC50) values were determined using a clonogenic assay or a CyQUANT® cell proliferation assay. In the clonogenic assay, for example, 500-700 A2780 cells from a single cell suspension were plated onto 60 mm petri plates 24 hours before treatment with the platinum compounds to permit cell attachment. On the day of treatment with the platinum compounds described in the above Synthesis Examples, the medium was decanted and was replaced with the appropriate concentration of phosphaplatin compounds (from 50 nM to 75 μM) at three different time points, […] Triplicate plates were set up for each platinum compound concentration. After the 24-hour treatment, the medium containing the platinum compounds was decanted and was replaced with fresh medium. These plates were returned to the 37° C. incubator for 7 days for colony formation.
as §2, §3

[3] = tested on: OVCAR-10, human ovarian cancer resistant to cisplatin treatment; experiment: Clonogenic assay, OVCAR-10 cells; assay type: cell-based; conditions: OVCAR-10, 24 hours treatment
Method: as §1
Half-maximal inhibitory concentration (IC50) values were determined using a clonogenic assay or a CyQUANT® cell proliferation assay. In the clonogenic assay, for example, 500-700 A2780 cells from a single cell suspension were plated onto 60 mm petri plates 24 hours before treatment with the platinum compounds to permit cell attachment. On the day of treatment with the platinum compounds described in the above Synthesis Examples, the medium was decanted and was replaced with the appropriate concentration of phosphaplatin compounds (from 50 nM to 75 μM) at three different time points, and the treated cells were placed back into the 37° C. incubator for 24 hours. Triplicate plates were set up for each platinum compound concentration. After the 24-hour treatment, the medium containing the platinum compounds was decanted and was replaced with fresh medium. These plates were returned to the 37° C. incubator for 7 days for colony formation.
as §2, §3

[4] = tested on: A549, human lung adenocarcinoma cancer cells; experiment: CyQUANT cell proliferation assay, A549; assay type: cell-based; conditions: A549, 72-hour treatment
Source text: (§4) In these experiments, desired number of cells were exposed to phosphaplatins of different concentrations for 72 hr. before measuring the DNA content. Because the DNA content is proportional to the number of surviving cells, the assay provides a quantitative measure of proliferating cells. The technique is described in detail in Jones et al., “Sensitive determination of cell number using the CyQUANT cell proliferation assay,” J. Immunol. Methods, vol. 254, pp. 85-98 (2001).
as §2

[5] = tested on: U251, human glioblastoma cancer cells; experiment: CyQUANT cell proliferation assay, U251; assay type: cell-based; conditions: U251, 72-hour treatment
Source text: as §4, §2

[6] = tested on: PC-3, human metastatic prostate cancer cells; experiment: CyQUANT cell proliferation assay, PC-3; assay type: cell-based; conditions: PC-3, 72-hour treatment
Source text: as §4, §2

[7] = tested on: SKMEL-2, human skin melanoma cancer cells; experiment: CyQUANT cell proliferation assay, SKMEL-2; assay type: cell-based; conditions: SKMEL-2, 72-hour treatment
Source text: as §4, §2

[8] = tested on: OVCAR-8, human ovarian cancer cells with dysfunctional p53; experiment: CyQUANT cell proliferation assay, OVCAR-8; assay type: cell-based; conditions: OVCAR-8, 72-hour treatment
Source text: as §4, §2

[9] = tested on: OVCAR-10, human ovarian cancer resistant to cisplatin treatment; experiment: CyQUANT cell proliferation assay, OVCAR-10; assay type: cell-based; conditions: OVCAR-10, 72-hour treatment
Source text: as §4, §2

FAS = experiment: Western blot protein expression, FAS; assay type: in vivo; conditions: treated mice, exposure 1 hour to 12 hours
Method: (§5) Following 12% SDS-PAGE electrophoresis, proteins were transferred to a PVDF membrane using 100 V for 1.5 hours at 4° C. Membranes were washed with 0.05% TWEEN-20 and Tris-buffered saline (TBST) solution and blocked with 5% non-fat dry milk and 1% BSA. The membrane was incubated with a 1:25,000 dilution of primary antibody of the protein of interest over night at 4° C. Membranes were washed with 0.05% TBST followed by incubating in the corresponding HRP-conjugated antibody (1:40,000 dilution). The proteins were visualized using ECL-Advance chemiluminescent system (Amersham-GE Healthcare Biosciences, Pittsburgh, Pa.).
(§6) The phosphaplatins activate a number of proapototic and tumor suppression genes such as FAS, PTEN, PUMA, BAX and others. Experiments through Western Blots confirm high levels of protein expressions transcribed by these genes. […] Likewise, BCL2 was down regulated as much as 70% by RR-pyrodach-2 and RR-pyrodach-4. Additionally, FAS, FADD, and platinum compound were co-localized in the lipid rafts. These activations are also associated with the increased expression of Sphingomyelinase (Smase), as verified by the increased protein expression of SMase.

BAX = experiment: Western blot protein expression, BAX; assay type: in vivo; conditions: treated mice, exposure 1 hour to 12 hours
Method: as §5, §6

PUMA = experiment: Western blot protein expression, PUMA; assay type: in vivo; conditions: treated mice, exposure 1 hour to 12 hours
Method: as §5, §6

VEGFR = experiment: Western blot protein expression, VEGFR; assay type: in vivo; conditions: treated mice, exposure 1 hour to 12 hours
Method: as §5, §6

Ovarian tumor = Ovarian tumor inflicted SCID mice, tumor growth and log cell kill; assay type: in vivo
Method: Ovarian tumor inflicted SCID mice were treated with trans-(±)-pyrodach-2 and trans-(±)-pyrodach-4 at various doses up to 40 mg/kg, and tumor growth was monitored up to six weeks or until the tumor size became so large that these animals were sacrificed. The tumor growth or regression by the phosphaplatin-treated mice was then compared with cisplatin-treated mice (7 mg/kg) and carboplatin-treated mice (60 mg/kg). Three doses of platinum compounds were administered on alternate days when the tumor grew to a size of at least 100 mm^3 size. Gross and net log cell kill values were then calculated using the formulas:
[formula] [formula] where T and C are median times in days to grow tumor to a specified size, and Td is the median time in days to double the size of the tumor in control animals.

[10] = tested on: OVCAR-5, advanced human ovarian cancer cells; experiment: Clonogenic assay, OVCAR-5 cells; assay type: cell-based; conditions: OVCAR-5, 24 hours treatment
Method: as §1
(§7) Half-maximal inhibitory concentration (IC50) values were determined using a clonogenic assay or a CyQUANT® cell proliferation assay. In the clonogenic assay, for example, 500-700 A2780 cells from a single cell suspension were plated onto 60 mm petri plates 24 hours before treatment with the platinum compounds to permit cell attachment. […]
(§8) In further tests, cells were treated with the platinum compounds continuously for 7 days. […] Colonies containing more than 50 cells were scored. The number of scored colonies from the triplicate plates was averaged, and this number was divided by the number of cells plated to obtain a value for the fraction of cells forming colonies. […]

[11] = tested on: UMSCC10b/15s, cisplatin-resistant human head-and-neck cancer cell line; experiment: Clonogenic assay, UMSCC10b/15s cells; assay type: cell-based; conditions: 7-day treatment
Method: as §1, §7, §8

[12] = tested on: pancreatic cell line Panc-1; experiment: 144 hour exposure IC50, Panc-1; assay type: cell-based; conditions: Panc-1, 144 hours exposure
Method: (§9) Additionally these isomeric compounds were also tested by exposing them for 144 hours in the following cell lines: UMSCC10b, Panc-1, UMSCC15s, A2780/C30 and HCC1806.

[13] = tested on: head and neck cancer cell line UMSCC10b; experiment: 144 hour exposure IC50, UMSCC10b; assay type: cell-based, human
Method: as §9

[14] = tested on: breast cancer cell line HCC1806; experiment: 144 hour exposure IC50, HCC1806; assay type: cell-based; conditions: HCC1806, 144 hours exposure
Method: as §9

[15] = tested on: human ovarian cancer OVCAR-10 xenograft; experiment: In vivo efficacy, OVCAR-10 mouse xenograft; parameters: species or system mice; conditions: 60 mg/kg qodx3, time to tumor size 1000 mm^3, compared with control
Method: Stable human clonal ovarian cancer cell lines OVCAR-10 and head and neck cancer UMSCC10b were grown separately in cell culture until 80-90% confluency was reached. Trypsin (GIBCO/BRL, Grand Island, N.Y.) was used to detach adherent cells. Trypsinized cells were thoroughly washed with PBS (Phosphate Buffered Saline) to remove trypsin. Efficacy of phosphaplatin compounds were evaluated by subcutaneously implanting human OVCAR-10 and UMSCC-10b xenograft in SCID Hairless OutBred, SHO-Prkdc^scidHr^hr, (Charles River Labs, Wilmington, Mass.) mice, NIH (NIH III: NIHBNX-F; NIHS-Lystbg Foxnlnu Btkxid, 4-week old female, Taconic (Rensselaer, N.Y.) mice.
Female SCID/NIH mice 4-5 weeks old were acclimated for one week before initiation of efficacy trials. Cancer cells were re-suspended in PBS and all mice except for negative control mice were injected subcutaneously with from 1×10^6 cells/0.10 mL to 5×10^6 cells/0.10 mL in PBS. The tumor size was evaluated as a function of time. The mice were examined daily for tumor growth. Tumors were measured using digital calipers. The tumor volume was calculated by the formula (W^2×L)/2, where W is the tumor measurement at the widest point, and L is the tumor dimension at the longest point, where the volume of the tumor in mm^3 is equivalent to the weight in mg.
After approximately 2 weeks of the subcutaneous injection of cancer cells, the tumors that had reached a distinguishable tumor sizes (approximately 100 mm^3 to 200 mm^3), phosphaplatin compounds of desired doses were administered intra-peritoneally. These administrations were done one time on day 1, once on day 3, and once on day 5.
Each group of xenograft mice was treated with phosphaplatin compounds, and a matched set was treated with vehicle/placebo (PBS solution) and mock injection (as a control for stress response). […] The xenograft SCID mice/NIH were monitored every day for any adverse events in their health by measuring weight loss/gain and food consumption. Measurements were stopped and the study was ended when the tumor size exceeded 3000 mm^3. […]

[16] = Maximum tolerated dose toxicity in ICR (CD-1) mice; assay type: in vivo; conditions: dose of 60 mg/kg
Method: Escalating doses were administered from 10 mg/kg to 100 mg/kg in 4-5 week-old female ICR (CD-1) mice, Taconic (Rensselaer, N.Y.). The mice had body weights between 15 g and 24 g. The mice were injected with one of the phosphaplatins every other day in a three-dose regimen. Total body-weight loss of 20% or more, unthrifty appearance, failure to gain weight, other observable health issues, departures from normal behaviors, or death, were considered an adverse event.

[17] = 40 mg/kg, three doses on alternate days

Compound | IC50 ([1]; A2780, 1 hour treatment) | IC50 [2] [µM] | IC50 [3] [µM] | IC50 [4] [µM] | IC50 [5] [µM] | IC50 [6] [µM] | IC50 [7] [µM] | IC50 [8] [µM] | IC50 [9] [µM] | IC50 ([1]; A2780, 24 hours treatment) [µM] | also measured
trans-(±)-1,2-cyclohexanediamine-trans-dihydroxo(pyrophosphato) platinum(IV) [trans-(±)-pyrodach-4] | 180 µM and 170 µM | 155 ± 20 | 14.4 | 12.2 | 14.6 | 20 | 14.6 | 12.3 | 23.2 |  | upregulation of FAS (FAS): up to 25 fold; upregulation of BAX (BAX): up to 4 fold; upregulation of PUMA (PUMA): up to 5 fold; down regulation of VEGFR (VEGFR): up to 50%; gross log cell kill (Ovarian tumor; [17]): greater than 3; log net cell kill (Ovarian tumor; [17]): greater than 2
NC1CCCCC1N.O=P([O-])(O)OP(=O)([O-])O.[Pt+2] (racemic) [trans-(±)-pyrodach-2, trans-(±)-1,2-cyclohexanediamine(pyrophosphato) platinum(II)] | 22 ± 4 µM | 48 ± 5 | 4.6 | 11.1 | 10.1 | 24.5 | 8.3 | 9.4 | 11.8 | 2.4 ± 0.2 | IC50 [10]: 12.2 µM; IC50 [11]: 5 µM; IC50 [12]: 18.5 µM; IC50 [13]: 8.9 µM; IC50 [14]: > 30 µM
N.N.O=C([O-])C1(C(=O)[O-])CCC1.[Pt+2] [carboplatin] | 90 µM | > 200 | 26.7 |  |  |  |  |  |  | > 60 | population died (Ovarian tumor; 60 mg/kg dose): more than 50%; log cell kill values (Ovarian tumor; 60 mg/kg, three doses on alternate days): less than 2; percent increased life-span (% ILS) [15]: about 125%; death [16]: 33%
